# Measurements: patent publication US8148373B2, “Compounds” (AstraZeneca AB, priority 2008, dated 2012)
# Assays:
# [1] = target: T1, Adrenergic β2 (H292 cells) (Homo sapiens, UniProt P07550); test: Assay for Adrenergic β2 Mediated cAMP Production (concentration response, AlphaScreen cAMP detection); type: cell-based; details: for EC50: cAMP production, 60 minutes at room temperature, 300 μM rolipram, read-out: β2 pEC50 (converted); for β2 Intrinsic activity: fraction relative to the maximum activity determined for formoterol
# T1 construct: endogenous in cells; host or cells: H292 cells
# T1 sequence (P07550 whole entry): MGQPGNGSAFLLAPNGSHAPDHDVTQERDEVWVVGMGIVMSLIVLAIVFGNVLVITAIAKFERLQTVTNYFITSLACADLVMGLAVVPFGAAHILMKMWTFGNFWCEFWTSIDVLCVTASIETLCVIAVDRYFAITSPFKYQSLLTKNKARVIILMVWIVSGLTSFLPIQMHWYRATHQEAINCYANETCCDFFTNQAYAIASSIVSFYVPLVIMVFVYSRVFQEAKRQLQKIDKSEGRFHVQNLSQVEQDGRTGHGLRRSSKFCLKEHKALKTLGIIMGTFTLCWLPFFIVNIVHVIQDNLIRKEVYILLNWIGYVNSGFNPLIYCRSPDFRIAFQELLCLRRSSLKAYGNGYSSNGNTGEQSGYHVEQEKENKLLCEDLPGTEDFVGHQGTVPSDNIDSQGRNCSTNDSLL
# Method in brief: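 H292 cells plated overnight, pre-treated with rolipram (300 μM final) 10 min, then compound 60 min at room temperature in HBSS/10 mM HEPES pH7.4/5 mM glucose, 1% DMSO. Lysate cAMP read by AlphaScreen against a cAMP standard curve; 4-parameter fit gives pEC50 and intrinsic activity as fraction of formoterol maximum.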
# [2] = target: T2, human muscarinic acetylcholine M3 receptor (M3-ACh) (Homo sapiens, UniProt P20309); test: Muscarinic 3 Receptor Binding Assay, % inhibition specific binding at 1 μM; details: 1 μM compound, % inhibition specific [3H]-NMS binding
# T2 construct: expressed in transfected cells; host or cells: CHO-K1 (Chinese Hamster Ovary) cell membranes
# T2 sequence (P20309 whole entry): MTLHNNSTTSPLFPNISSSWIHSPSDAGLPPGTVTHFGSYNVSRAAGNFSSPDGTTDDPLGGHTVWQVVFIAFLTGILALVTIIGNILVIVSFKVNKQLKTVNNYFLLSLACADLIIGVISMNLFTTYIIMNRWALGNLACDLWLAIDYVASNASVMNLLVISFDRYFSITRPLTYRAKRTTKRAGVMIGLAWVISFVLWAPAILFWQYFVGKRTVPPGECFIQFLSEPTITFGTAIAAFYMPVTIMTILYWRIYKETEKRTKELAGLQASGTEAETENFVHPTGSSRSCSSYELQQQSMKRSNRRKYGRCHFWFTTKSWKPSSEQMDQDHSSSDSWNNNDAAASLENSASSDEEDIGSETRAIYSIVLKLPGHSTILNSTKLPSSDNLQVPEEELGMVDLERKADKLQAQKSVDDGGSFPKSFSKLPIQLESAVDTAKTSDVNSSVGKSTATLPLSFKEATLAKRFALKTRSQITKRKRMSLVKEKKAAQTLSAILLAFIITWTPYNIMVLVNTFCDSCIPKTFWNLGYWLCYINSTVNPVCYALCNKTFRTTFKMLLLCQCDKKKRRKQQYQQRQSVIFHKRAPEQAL
# Method in brief: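 Competition binding of 0.1 nM [3H]NMS to membranes from CHO-K1 cells expressing human M3, SPA format, with compound at 1 μM in 20 mM HEPES pH 7.4, 5 mM MgCl2, 1% DMSO. Incubated 16 h at room temperature; non-specific binding defined by 1 μM atropine; value is % inhibition of specific binding.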
# [3] = target: T2, human muscarinic acetylcholine M3 receptor (M3-ACh); test: Muscarinic 3 Receptor Binding Assay ([3H]NMS competition, SPA); details: [3H]NMS 0.1 nM, CHO-K1 cell membranes, 16 hours at room temperature; read-out: M3 pIC50 (converted)
# Method in brief: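 Competition SPA binding of 0.1 nM [3H]NMS (quarter Kd) to membranes from CHO-K1 cells expressing human M3, in 20 mM HEPES pH 7.4, 5 mM MgCl2, 1% DMSO. Incubated 16 h at room temperature; non-specific binding with 1 µM atropine. pIC50 from 50% reduction of specific binding.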
# [4] = target: T1, Adrenergic β2 (H292 cells); test: Adrenergic β2 Mediated cAMP Production, single concentration 1 μM; type: cell-based; details: NCI-H292, 1 μM compound, percentage of the maximum response generated by 1E-07M formoterol, read-out: β2 (% effect at 1 μM)
# Method in brief: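 H292 cells were plated overnight, pre-treated with 300 μM rolipram for 10 min, then exposed to compound at 1 μM final (1% DMSO) for 60 min at room temperature. cAMP in the lysates was measured by AlphaScreen against a standard curve and expressed as % of the maximal response to 1E-07M formoterol.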
EC50 [1],β2 Intrinsic activity [1],inhibition at 1 µM [2],IC50 [3],activation at 1 µM [4],Structure (SMILES)
12.6 nM,0.8,99%,0.794 nM,87%,"Cc1csc(C(=O)N2CCOC3(CCN(CCCCCCCCCNC[C@H](O)c4ccc(O)c5[nH]c(=O)sc45)CC3)C2)c1 [Example 213, (R)-4-hydroxy-7-(1-hydroxy-2-(9-(4-(4-methylthiophene-2-carbonyl)-1-oxa-4,9-diazaspiro[5.5]undecan-9-yl)nonylamino)ethyl)benzo[d]thiazol-2(3H)-one]"
12.6 nM,0.8,99%,3.16 nM,82%,"Cc1ccc(C(=O)N2CCOC3(CCN(CCCCCCCCCNC[C@H](O)c4ccc(O)c5[nH]c(=O)sc45)CC3)C2)o1 [Example 198, (R)-4-hydroxy-7-(1-hydroxy-2-(9-(4-(5-methylfuran-2-carbonyl)-1-oxa-4,9-diazaspiro[5.5]undecan-9-yl)nonylamino)ethyl)benzo[d]thiazol-2(3H)-one]"
12.6 nM,0.9,99%,2 nM,77%,"O=C(c1ccc(Cl)s1)N1CCOC2(CCN(CCCCCCCCCNC[C@H](O)c3ccc(O)c4[nH]c(=O)sc34)CC2)C1 [Example 190, (R)-7-(2-(9-(4-(5-chlorothiophene-2-carbonyl)-1-oxa-4,9-diazaspiro[5.5]undecan-9-yl)nonylamino)-1-hydroxyethyl)-4-hydroxybenzo[d]thiazol-2(3H)-one]"
31.6 nM,0.9,98%,6.31 nM,105%,"Cc1nc(C(=O)N2CCOC3(CCN(CCCCCCCCCNC[C@H](O)c4ccc(O)c5[nH]c(=O)sc45)CC3)C2)c(C)s1 [Example 201, (R)-7-(2-(9-(4-(2,5-dimethylthiazole-4-carbonyl)-1-oxa-4,9-diazaspiro[5.5]undecan-9-yl)nonylamino)-1-hydroxyethyl)-4-hydroxybenzo[d]thiazol-2(3H)-one]"
50.1 nM,0.8,99%,1 nM,92%,"CCCc1nc(C(=O)N2CCOC3(CCN(CCCCCCCCCNC[C@H](O)c4ccc(O)c5[nH]c(=O)sc45)CC3)C2)cs1 [Example 219, (R)-4-hydroxy-7-(1-hydroxy-2-(9-(4-(2-propylthiazole-4-carbonyl)-1-oxa-4,9-diazaspiro[5.5]undecan-9-yl)nonylamino)ethyl)benzo[d]thiazol-2(3H)-one]"
,,95%,,81%,"O=C(Cc1cccs1)N1CCOC2(CCN(CCCCCCCCCNC[C@H](O)c3ccc(O)c4[nH]c(=O)sc34)CC2)C1 [Example 185, (R)-4-hydroxy-7-(1-hydroxy-2-(9-(4-(2-(thiophen-2-yl)acetyl)-1-oxa-4,9-diazaspiro[5.5]undecan-9-yl)nonylamino)ethyl)benzo[d]thiazol-2(3H)-one]"
,,97%,,101%,"Cc1ccn(CC(=O)N2CCOC3(CCN(CCCCCCCCCNC[C@H](O)c4ccc(O)c5[nH]c(=O)sc45)CC3)C2)n1 [Example 204, (R)-4-hydroxy-7-(1-hydroxy-2-(9-(4-(2-(3-methyl-1H-pyrazol-1-yl)acetyl)-1-oxa-4,9-diazaspiro[5.5]undecan-9-yl)nonylamino)ethyl)benzo[d]thiazol-2(3H)-one]"

# The next lines start with the molecule.
Structure (SMILES),EC50 [1],β2 Intrinsic activity [1],inhibition at 1 µM [2],IC50 [3],activation at 1 µM [4]
"O=C(c1cccc2cc[nH]c12)N1CCOC2(CCN(Cc3cc(F)cc(CCNC[C@H](O)c4ccc(O)c5[nH]c(=O)sc45)c3)CC2)C1 [Example 141, (R)-7-(2-(3-((4-(1H-indole-7-carbonyl)-1-oxa-4,9-diazaspiro[5.5]undecan-9-yl)methyl)-5-fluorophenethylamino)-1-hydroxyethyl)-4-hydroxybenzo[d]thiazol-2(3H)-one]",6.31 nM,0.9,91%,25.1 nM,105%
"O=C(c1ccc(Cl)s1)N1CCOC2(CCN(Cc3cc(F)cc(CCNC[C@H](O)c4ccc(O)c5[nH]c(=O)sc45)c3)CC2)C1 [Example 124, (R)-7-(2-(3-((4-(5-chlorothiophene-2-carbonyl)-1-oxa-4,9-diazaspiro[5.5]undecan-9-yl)methyl)-5-fluorophenethylamino)-1-hydroxyethyl)-4-hydroxybenzo[d]thiazol-2(3H)-one]",3.98 nM,0.9,97%,12.6 nM,100%
"CC(C)(C)CC(=O)N1CCOC2(CCN(Cc3cc(F)cc(CCNC[C@H](O)c4ccc(O)c5[nH]c(=O)sc45)c3)CC2)C1 [Example 130, (R)-7-(2-(3-((4-(3,3-dimethylbutanoyl)-1-oxa-4,9-diazaspiro[5.5]undecan-9-yl)methyl)-5-fluorophenethylamino)-1-hydroxyethyl)-4-hydroxybenzo[d]thiazol-2(3H)-one]",12.6 nM,1,90%,79.4 nM,109%
"Cn1c(C(=O)N2CCOC3(CCN(Cc4cc(F)cc(CCNC[C@H](O)c5ccc(O)c6[nH]c(=O)sc56)c4)CC3)C2)cc2ccccc21 [Example 139, (R)-7-(2-(3-fluoro-5-((4-(1-methyl-1H-indole-2-carbonyl)-1-oxa-4,9-diazaspiro[5.5]undecan-9-yl)methyl)phenethylamino)-1-hydroxyethyl)-4-hydroxybenzo[d]thiazol-2(3H)-one]",,,34%,,101%
"CCn1c(=O)n(CC(=O)N2CCOC3(CCN(Cc4cc(F)cc(CCNC[C@H](O)c5ccc(O)c6[nH]c(=O)sc56)c4)CC3)C2)c2ccccc21 [Example 135, (R)-7-(2-(3-((4-(2-(3-ethyl-2-oxo-2,3-dihydro-1H-benzo[d]imidazol-1-yl)acetyl)-1-oxa-4,9-diazaspiro[5.5]undecan-9-yl)methyl)-5-fluorophenethylamino)-1-hydroxyethyl)-4-hydroxybenzo[d]thiazol-2(3H)-one]",,,1%,,106%
"Cc1nn(-c2ccccc2)nc1C(=O)N1CCOC2(CCN(Cc3cc(F)cc(CCNC[C@H](O)c4ccc(O)c5[nH]c(=O)sc45)c3)CC2)C1 [Example 170, (R)-7-(2-(3-fluoro-5-((4-(5-methyl-2-phenyl-2H-1,2,3-triazole-4-carbonyl)-1-oxa-4,9-diazaspiro[5.5]undecan-9-yl)methyl)phenethylamino)-1-hydroxyethyl)-4-hydroxybenzo[d]thiazol-2(3H)-one]",,,42%,,102%
"O=C(Cc1noc2ccccc12)N1CCOC2(CCN(Cc3cc(F)cc(CCNC[C@H](O)c4ccc(O)c5[nH]c(=O)sc45)c3)CC2)C1 [Example 144, (R)-7-(2-(3-((4-(2-(benzo[d]isoxazol-3-yl)acetyl)-1-oxa-4,9-diazaspiro[5.5]undecan-9-yl)methyl)-5-fluorophenethylamino)-1-hydroxyethyl)-4-hydroxybenzo[d]thiazol-2(3H)-one]",,,35%,,101%
